The results in this text go back to patent publication US12258389B2, “Methods and compositions for inhibition of EGF/EGFR pathway in combination with tyrosine kinase inhibitors” (In3Bio Ltd., priority 2015, dated 2025).

Like-named read-outs stand apart in the source and are kept apart here.

For assay [1], the system named is p-ERK1/2. The assay is described as follows: Western blot, phosphorylated ERK1/2 normalised to total ERK1/2, PC9 cells. In kind it is cell-based, human. Here is the method: (§1) Experiment 1: In a typical standard experiment, five T-75 flasks of the cell line under study were cultured to approximately 70% confluence, washed twice with PBS and grown o/n in serum-free medium. The serum-starved cells were then washed again and treated as follows:
(§2) Treatment was for about 15 minutes.
(§3) Experiment 2: In a second experiment anti-EGF was tested only at 1 to 2 dilution. […] Treatment was prolonged to about 2 hours in this experiment.
(§4) Both EGF and anti-EGF antibodies, which used in this project were derived from an immunization study in monkeys that received 4 immunizations of the rEGF-rP64k conjugate CIMAvax-EGF vaccine formulated with Montanide adjuvant. The vaccine and resulting anti-EGF antibodies were provided by Bioven (Europe) Ltd, Cruikshank Building North, Aberdeen Biotechnology, Craibstone Aberdeen, U.K. Scotland. Antibodies for Western blotting were purchased from Santa Cruz Biotechnologies (Palo Alto, CA).
(§5) Experiment 3: In a third experiment anti-EGF was tested only at 1 to 2 dilution. […] Treatment was prolonged to about 2 hours in this experiment. […] Both EGF and anti-EGF were provided by Bioven. Antibodies for Western blotting were purchased from Santa Cruz Biotechnologies (Palo Alto, CA).
(§6) Subsequently, three kind of experiments were performed:
(§7) C. Non-Standard Conditions: In experiments “under non-standard conditions”, PC9 (4 flasks) cells were not submitted to serum starvation and activation with fetal bovine serum instead of human EGF was employed. They were washed with PBS (×2), drugs were added in medium containing 10% FBS and incubated for 2 hours.

The test system of assay [2] is p-EGFR. The assay is described as follows: Western blot, phosphorylated EGFR normalised to total EGFR, PC9 cells. It is filed as cell-based, human. As to the method:
as §1, §2, §3, §4, §5, §6
C. […]

Assay [3] deals with p-Akt. Description: Western blot, phosphorylated Akt, PC9-GR4 (T790M positive) cells. It is filed as cell-based, human. The note with it: AZD9291 0.2 μM, Ab1, Ctrl = 100. An excerpt: (§8) As described above, the PC9 cell line carries a 15 bp deletion in exon 19 of EGFR, making this cell line sensitive to TKI's. It represents a model for the EGFR Mutated segment of the NSCLC patient population receiving TKI treatment. As a part of this effort, PC9-derived cell lines resistant to TKIs were developed.
(§9) In 5-day experiments, PC9 cells were not submitted to serum starvation but cultured with human serum.
For orientation: Immunoblotting shows a protein as a band on a membrane.

The test system of assay [4] is pSTAT-3. The assay is described as follows: Western blot, phosphorylated STAT3 normalised to total STAT3, PC9 cells. In kind it is cell-based, human. As to the method: as §1, §2, §3, §4, §5, §6, §7
Assay [5] has as its system p-EGFR. Description: Western blot, phosphorylated EGFR, PC9-GR4 (T790M positive) cells. As to conditions: AZD9291 0.2 μM, Ab1, Ctrl = 100. It is filed as cell-based, human.
Text: as §8, §9

For assay [6], the system named is pSTAT-3. Description: Western blot, phosphorylated STAT3, PC9-GR4 (T790M positive) cells. It is filed as cell-based, human. The note with it: AZD9291 0.2 μM, Ab1, Ctrl = 100.
Text: as §8, §9

Assay [7] has as its system p-Akt. Description: Western blot, phosphorylated Akt normalised to total Akt, PC9 cells. It is filed as cell-based, human. Here is the method: as §1, §2, §3, §4, §5, §6, §7
Another assay deals with PC9 cells. Description: Sensitivity of parental PC9 cells to TKIs. It is filed as cell-based, human.
Text: (§10) In the conduct of this study PC9-derived cell lines that are resistant to TKIs were utilized. […] They represent a model for the EGFR Mutated segment of the NSCLC patient population receiving first-line TKI treatment.
as §8

Assay [8] concerns p-ERK1/2. Description: Western blot, phosphorylated ERK1/2, PC9-GR4 (T790M positive) cells. It is filed as cell-based, human. As to conditions: AZD9291 0.2 μM, Ab1, Ctrl = 100.
Text: as §8, §9

For another assay, the system named is PC9-GR1 and GR4. The assay is described as follows: Sensitivity of T790M PC9-derived lines. In kind it is cell-based, human. From the text: In the conduct of this study PC9-derived cell lines that are resistant to TKIs were utilized. […] They represent a model for the EGFR Mutated segment of the NSCLC patient population receiving first-line TKI treatment. […]. These two cell lines (PC9-GR1 and GR4) are sensitive to the new generation EGFR TKI developed by Astra Zeneca (AZD9291) that can also bind to the T790M EGFR mutated protein.
As described above, the PC9 cell line carries a 15 bp deletion in exon 19 of EGFR, making this cell line sensitive to TKI's. It represents a model for the EGFR Mutated segment of the NSCLC patient population receiving TKI treatment. As a part of this effort, PC9-derived cell lines resistant to TKIs were developed. […] […]. These two cell lines (PC9-GR1 and GR4) are sensitive to the new generation EGFR TKI developed by Astra Zeneca (AZD9291) that can also bind to the T790M EGFR mutated protein.

A further assay concerns PARP. The assay is described as follows: Western blot, total PARP, PC9 cells. It is filed as cell-based, human. As to conditions: PC9, 24 h, gefitinib 0.5 μM, Ab1; Ctrl = 100. As to the method: as §9
(§11) A preliminary analysis was performed to test some of them: Notch3 cleaved (active form of Notch3), phosphor-YAP, Bmi1 and Hes1 (related to stem cells) and AXL (related to EMT transition). Also, PARP was investigated to determine if the antibodies induce apoptosis. Extracts of the PC9 cell line obtained in previous experiments were used. […] A not-so-significant down-regulation of Bmi1 was also observed.

The test system of another assay is pYAP. The assay is described as follows: Western blot, phospho-YAP, PC9 cells. It is filed as cell-based, human. As to conditions: PC9, 24 h, gefitinib 0.5 μM, Ab1; Ctrl = 100. Here is the method: as §9, §11
The subject of a further assay is Notch3. Description: Western blot, Notch3, PC9 cells. In kind it is cell-based, human. The note with it: PC9, 24 h, gefitinib 0.5 μM, Ab1; Ctrl = 100. Here is the method:
as §9, §11

A further assay has as its system Notch3 truncated. Description: Western blot, truncated (cleaved) Notch3, PC9 cells. It is filed as cell-based, human. The note with it: PC9, 24 h, gefitinib 0.5 μM, Ab1; Ctrl = 100. As to the method: as §9, §11
The test system of the next assay is HES1. The assay is described as follows: Western blot, Hes1 level, PC9 cells. The note with it: PC9, 24 h, gefitinib 0.5 μM, Ab1; Ctrl = 100. It is filed as cell-based, human. As to the method:
as §9, §11

The subject of the next assay is PARP cleaved. The assay is described as follows: Western blot, cleaved (truncated) PARP, PC9 cells. It is filed as cell-based, human. As to conditions: PC9, 24 h, gefitinib 0.5 μM, Ab1 (FIG. 21). As to the method: as §9, §11
The test system of the next assay is AXL. The assay is described as follows: Western blot, AXL, PC9 cells. The note with it: PC9, 24 h, gefitinib 0.5 μM, Ab1; Ctrl = 100. It is filed as cell-based, human. As to the method: as §9, §11
In a further assay the test system is Bmi1. The assay is described as follows: Western blot, Bmi1 level, PC9 cells. It is filed as cell-based, human. The note with it: PC9, 24 h, gefitinib 0.5 μM, Ab1; Ctrl = 100. As to the method:
as §9, §11

Another assay relates to PC9-ER and GR1 to GR5. The assay is described as follows: cells. In kind it is cell-based. As to conditions: Homo sapiens, PC-9/ER; PC9-ER and GR1 to GR5 resistant lines.
Text: as §10, §8

Setting [9] is: PC9, 2 h, AZD9291 0.2 μM, Ab1, Ctrl = 100.
The mark [10] stands for this setting: PC9, 24 h serum starvation and drug treatment, gefitinib 0.5 μM, Ab 1/2, Control = 100.
Setting [11] is: PC9, serum-starved, EGF, 15 min, gefitinib 40 nM, antibody 1/20 to 1/5 (FIG. 6).
The mark [12] stands for this setting: PC9, 0% FBS, EGF-induced, 2 h, erlotinib 1 μM, Ab 1/2 dilution, Control = 100.
[13] abbreviates: PC9, 2 h, erlotinib 1 μM, anti-EGF, nonstandard conditions and serum starvation (FIG. 13, 14).

A word on the IC50: it is the point on the concentration scale where inhibition reaches its midpoint. With `C=CC(=O)Nc1cc(Nc2nccc(-c3cn(C)c4ccccc34)n2)c(OC)cc1N(C)CCN(C)C` [AZD9291], the “pErk ½” value in the assay on p-ERK1/2 [1] (setting [9]) came out at 3.7; in the assay with p-ERK1/2 [8] (PC9-GR4, 2 h), 53.6. In addition, the pEGFR in the assay with p-EGFR [2] (setting [9]) was determined as 76.3; with p-EGFR [5] (PC9-GR4, 2 h) it was 2.5. Besides, the pAkt is 42.7 with p-Akt [3] (PC9-GR4, 2 h) and 2.9 with p-Akt [7] (setting [9]). Moreover, the Akt in the assay on p-Akt [3] (PC9-GR4, 24 h) turned out to be 26.8. Moreover, the pSTAT3 with pSTAT-3 [4] (setting [9]) turned out to be 146.6; in the assay on pSTAT-3 [6] (PC9-GR4, 2 h), 60. In the assay with p-EGFR [5] (PC9-GR4, 24 h), this compound registered an EGFR of 138.6. This compound also came in with an STAT3 with pSTAT-3 [6] (PC9-GR4, 24 h) of 847.5. The IC50 result with PC9 cells was “in the nM range”. Further, the “Erk ½” value in the assay with p-ERK1/2 [8] (PC9-GR4, 24 h) is reported as 20.5. Besides, in the assay on PC9-GR1 and GR4, the “sensitivity of cell lines” value was “sensitive”.
In the case of `COc1cc2ncnc(Nc3ccc(F)c(Cl)c3)c2cc1OCCCN1CCOCC1` [Gefitinib], the PARP total in the assay on PARP is 110. Also, in the assay with p-ERK1/2 [1], the “effect on Erk activation” value was “inactivated”, the “effect on Erk phosphorylation” value is “inhibited” and the pERK amounted to 8.1. In addition, the “p YAP (Ser 397)” value in the assay on pYAP amounted to 137.6. This compound also yielded a pSTAT3 in the assay on pSTAT-3 [4] (setting [10]) of 569.2. Besides, in the assay on pSTAT-3 [4] (PC9, nonstandard conditions (not serum-starved, 10% FBS, no EGF), 2 h, gefitinib 0.5 μM, anti-EGF 1/2 (FIG. 8)), the “effect on STAT-3 activation” value is given as “activated”. The “effect on STAT3 activation” value with pSTAT-3 [4] (PC9, serum starvation, EGF induction, 2 h, gefitinib 0.5 μM, anti-EGF 1/2 (FIG. 2, FIG. 9)) is recorded as “activated”. Further, the “effect on STAT3 phosphorylation” value in the assay on pSTAT-3 [4] (setting [11]) is reported as “activated”. Further, the pAkt in the assay with p-Akt [7] (setting [10]) was 72.6. Also, the “effect on Akt phosphorylation” value in the assay with p-Akt [7] (setting [11]) is recorded as “inhibited”. Also, the Notch3 in the assay with Notch3 was 120.8. This compound also returned a Notch3 truncated with Notch3 truncated of 98.9. For the same compound, the Hes1 with HES1 worked out at 86.5. Besides, in the assay with PARP cleaved, the PARP cleavage entry is “able to induce it”. This compound also yielded an AXL in the assay with AXL of 135.4. The Bmi1 in the assay on Bmi1 is reported as 100.1.
As for `COc1cc2c(Oc3ccc(NC(=O)C4(C(=O)Nc5ccc(F)cc5)CC4)cc3F)ccnc2cc1OCCCN1CCOCC1` [foretinib], in the assay with PC9 cells, the IC50 entry is on record as “in the nM range”.
The compound `C#Cc1cccc(Nc2ncnc3cc(OCCOC)c(OCCOC)cc23)c1` [Erlotinib, N-(3-ethynylphenyl)-6,7-bis(2-methoxyethoxy)-4-quinazolinamine] showed an ERK with p-ERK1/2 [1] (setting [12]) of 0. Also, the “effect on Erk activation” value in the assay on p-ERK1/2 [1] (setting [13]) is reported as “inactivated”. The same compound gave an EGFR with p-EGFR [2] (setting [12]) of 14.3. This compound also returned an STAT-3 in the assay with pSTAT-3 [4] (setting [12]) of 130. Moreover, the “effect on STAT3 activation” value in the assay on pSTAT-3 [4] (setting [13]) is on record as “activated”. This compound registered an Akt with p-Akt [7] (setting [12]) of 0. Moreover, in the assay with PC9-ER and GR1 to GR5, the 50% inhibitory concentration (IC50) lay within 5 to 10 µM.
